Columns and labels:
Experiment in all cases: […]-ATP peptide kinase assay with TLC, purified kinase
Format in all cases: biochemical
Itk = target: T1, Itk (Homo sapiens, UniProt Q08881)
T1 sequence (Q08881 1-620): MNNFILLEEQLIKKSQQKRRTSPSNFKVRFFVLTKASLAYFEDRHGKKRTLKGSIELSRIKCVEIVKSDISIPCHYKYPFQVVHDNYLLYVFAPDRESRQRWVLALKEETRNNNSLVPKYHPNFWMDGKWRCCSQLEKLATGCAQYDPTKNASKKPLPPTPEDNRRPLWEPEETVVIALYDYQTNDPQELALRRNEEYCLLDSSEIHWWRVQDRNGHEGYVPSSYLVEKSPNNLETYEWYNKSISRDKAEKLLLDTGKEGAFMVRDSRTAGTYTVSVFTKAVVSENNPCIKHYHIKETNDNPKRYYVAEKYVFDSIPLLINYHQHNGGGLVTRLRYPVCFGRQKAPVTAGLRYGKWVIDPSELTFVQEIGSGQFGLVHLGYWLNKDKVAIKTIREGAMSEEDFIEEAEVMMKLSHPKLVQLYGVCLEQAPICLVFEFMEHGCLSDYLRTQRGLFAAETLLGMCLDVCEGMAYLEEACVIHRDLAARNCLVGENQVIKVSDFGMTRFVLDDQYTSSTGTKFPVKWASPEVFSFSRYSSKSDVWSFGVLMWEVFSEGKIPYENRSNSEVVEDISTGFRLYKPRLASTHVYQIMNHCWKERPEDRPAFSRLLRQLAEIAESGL

Btk = Btk (Homo sapiens, UniProt Q06187)
Chain of Btk (Q06187 2-659): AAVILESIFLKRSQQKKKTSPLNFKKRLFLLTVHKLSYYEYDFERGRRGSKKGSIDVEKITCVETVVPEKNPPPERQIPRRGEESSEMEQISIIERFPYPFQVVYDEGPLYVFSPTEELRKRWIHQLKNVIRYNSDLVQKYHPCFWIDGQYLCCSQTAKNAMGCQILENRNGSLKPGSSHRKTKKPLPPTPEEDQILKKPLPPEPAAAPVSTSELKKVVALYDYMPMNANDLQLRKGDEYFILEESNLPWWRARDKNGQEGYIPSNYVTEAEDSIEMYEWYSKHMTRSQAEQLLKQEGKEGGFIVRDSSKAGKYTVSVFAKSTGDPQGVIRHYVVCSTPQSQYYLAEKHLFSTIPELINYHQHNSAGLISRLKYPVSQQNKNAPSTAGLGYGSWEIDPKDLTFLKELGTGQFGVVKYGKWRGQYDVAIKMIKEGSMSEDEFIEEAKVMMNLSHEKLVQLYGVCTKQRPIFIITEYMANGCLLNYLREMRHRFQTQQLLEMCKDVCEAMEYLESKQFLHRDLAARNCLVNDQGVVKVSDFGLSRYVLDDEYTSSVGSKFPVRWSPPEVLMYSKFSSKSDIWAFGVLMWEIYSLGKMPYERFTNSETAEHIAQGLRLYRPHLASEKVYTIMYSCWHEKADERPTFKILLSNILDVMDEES

Src = Src (Homo sapiens, UniProt P12931)
Chain of Src (P12931 2-536): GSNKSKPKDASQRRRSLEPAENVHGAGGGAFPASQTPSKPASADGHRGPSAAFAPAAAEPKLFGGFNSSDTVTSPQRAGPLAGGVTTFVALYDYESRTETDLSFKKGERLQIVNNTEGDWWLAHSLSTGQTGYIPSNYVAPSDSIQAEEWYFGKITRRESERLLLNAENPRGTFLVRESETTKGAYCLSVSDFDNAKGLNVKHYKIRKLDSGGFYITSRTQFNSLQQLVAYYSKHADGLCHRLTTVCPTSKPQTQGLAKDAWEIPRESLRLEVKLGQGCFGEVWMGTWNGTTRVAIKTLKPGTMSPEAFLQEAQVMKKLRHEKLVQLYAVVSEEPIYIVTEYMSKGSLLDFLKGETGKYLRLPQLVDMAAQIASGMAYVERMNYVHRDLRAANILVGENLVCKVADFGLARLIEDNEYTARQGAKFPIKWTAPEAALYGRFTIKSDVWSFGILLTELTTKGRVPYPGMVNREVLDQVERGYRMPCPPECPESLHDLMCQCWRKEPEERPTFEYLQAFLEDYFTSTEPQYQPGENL

- IC50 (Btk): ~0.05 µM
- IC50 (Src): ~5 µM
SMILES: CC(C)Cc1nc2cc3c(cc2[nH]c1=O)nc(NC(=O)c1ccc(-c2ccncc2)cc1)n3CCCN1CCCCC1 [CTN06, N-(7-isobutyl-6-oxo-1-(3-(piperidin-1-yl)propyl)-5,6-dihydro-1H-imidazo[4,5-g]quinoxalin-2-yl)-4-(pyridin-4-yl)benzamide]
- 33P-ATP peptide kinase assay with TLC, purified kinase (Itk): CTN06 appears to have the strongest activity toward Btk and Etk, followed by Itk, another member in the same family
